The values below come from PMC8612341, “Cyclic ^68Ga-Labeled Peptides for Specific Detection of Human Angiotensin-Converting Enzyme 2” (Journal of Nuclear Medicine, 2021).

pIC50: −log10 of the molar value. Where a SMILES comes first, the peptide text is derived from it. Bridges are numbered along the chain shown (N, C = ends). The star is where a group is joined. NOTA = O=C(O)CN1CCN(CC(=O)O)CCN(CC(=O)*)CC1

Test [1] concerns the target T1, ACE2 (Homo sapiens, UniProt Q9BYF1).
T1 construct: purchased AnaSpec AS-72086
Also noted: method as in earlier work. To be noted: vs. ACE and carboxypeptidase A; ref 30 (Huang et al.); cited from earlier work.

Test [2] addresses T1, ACE2. The test can be described thus: ACE2 inhibition assay (SensoLyte 390 ACE2 Activity Assay Kit, fluorimetric, AnaSpec). Format: biochemical. To be noted: for pIC50: nonlinear fit of 6-point dilution series, Fig. 2D. Here is the method: Six DX600-derived peptides, named NOTA-PEP1 to NOTA-PEP6 (cyclic vs. noncyclic, with triglycine, aminocaproate, and polyethylene glycol linkers), were studied using a commercially available ACE2 inhibition assay according to the manufacturer’s instructions (SensoLyte 390 ACE2 Activity Assay Kit *Fluorimetric*, AS-72086; AnaSpec). Each peptide inhibitor was first tested at 4 concentrations. Initial velocities were determined relative to the inhibitor free reaction. Subsequently, IC50 values were derived from nonlinear fits of saturation curves of a 6-point dilution series of peptide inhibitors.

The mark [3] stands for this setting: fluorometric ACE2 inhibition assay (AnaSpec).

T1 sequence (Q9BYF1 18-805): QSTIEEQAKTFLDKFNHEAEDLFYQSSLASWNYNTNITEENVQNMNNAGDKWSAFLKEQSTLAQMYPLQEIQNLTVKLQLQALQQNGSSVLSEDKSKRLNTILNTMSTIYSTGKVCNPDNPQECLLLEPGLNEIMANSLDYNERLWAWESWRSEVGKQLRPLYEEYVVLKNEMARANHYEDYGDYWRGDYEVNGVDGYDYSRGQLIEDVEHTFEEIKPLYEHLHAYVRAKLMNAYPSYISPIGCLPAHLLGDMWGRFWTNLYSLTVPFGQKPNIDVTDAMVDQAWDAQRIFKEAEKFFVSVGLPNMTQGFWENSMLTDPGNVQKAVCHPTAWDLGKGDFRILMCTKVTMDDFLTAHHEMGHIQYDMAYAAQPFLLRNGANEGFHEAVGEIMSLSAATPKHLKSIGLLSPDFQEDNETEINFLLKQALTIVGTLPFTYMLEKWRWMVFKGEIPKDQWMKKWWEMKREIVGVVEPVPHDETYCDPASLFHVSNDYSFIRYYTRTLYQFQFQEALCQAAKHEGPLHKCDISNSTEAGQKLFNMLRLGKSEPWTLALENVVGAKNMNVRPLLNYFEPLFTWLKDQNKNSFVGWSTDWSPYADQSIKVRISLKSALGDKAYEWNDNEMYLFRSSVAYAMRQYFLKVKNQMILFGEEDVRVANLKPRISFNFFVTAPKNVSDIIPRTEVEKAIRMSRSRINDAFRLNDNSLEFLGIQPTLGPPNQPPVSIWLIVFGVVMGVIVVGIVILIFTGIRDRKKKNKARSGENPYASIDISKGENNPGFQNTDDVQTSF

Consider `CC(=O)NCC(=O)N[C@@H](CC(=O)O)C(=O)N[C@@H](Cc1ccc(O)cc1)C(=O)N[C@@H](CO)C(=O)N[C@@H](Cc1c[nH]cn1)C(=O)N[C@H]1CSSC[C@@H](C(=O)N[C@H](C(=O)N[C@@H](Cc2ccc(O)cc2)C(=O)N2CCC[C@H]2C(=O)N[C@@H](CC(=O)O)C(=O)N2CCC[C@H]2C(=O)N[C@@H](CCC(=O)O)C(=O)NCC(=O)NCC(=O)NCC(N)=O)[C@@H](C)O)NC(=O)[C@H](CCCCN)NC(=O)[C@H](Cc2c[nH]c3ccccc23)NC(=O)[C@H](Cc2c[nH]c3ccccc23)NC(=O)[C@@H]2CCCN2C(=O)[C@H](Cc2ccc(O)cc2)NC(=O)[C@H](Cc2ccc(O)cc2)NC(=O)[C@H](CCCNC(=N)N)NC(=O)[C@H](CC(C)C)NC(=O)[C@@H]2CCCN2C(=O)[C@H](CO)NC1=O` [DX600, reference compound], for which the “Specificity for ACE2” value on ACE2 [1] is “specificity for ACE2 vs. ACE and carboxypeptidase A”. Also, the pIC50 (usually the IC50 on a negative log10 scale, so that one unit is a factor of ten) at ACE2 [2] (setting [3]) was 6.94. As for `CC(C)C[C@H](NC(=O)[C@@H]1CCCN1C(=O)[C@H](CO)NC(=O)[C@H](CS)NC(=O)[C@H](Cc1c[nH]cn1)NC(=O)[C@H](CO)NC(=O)[C@H](Cc1ccc(O)cc1)NC(=O)[C@H](CC(=O)O)NC(=O)CNC(=O)CNC(=O)CNC(=O)CNC(=O)CN1CCN(CC(=O)O)CCN(CC(=O)O)CC1)C(=O)N[C@@H](CCCNC(=N)N)C(=O)N[C@@H](Cc1ccc(O)cc1)C(=O)N[C@@H](Cc1ccc(O)cc1)C(=O)N1CCC[C@H]1C(=O)N[C@@H](Cc1c[nH]c2ccccc12)C(=O)N[C@@H](Cc1c[nH]c2ccccc12)C(=O)N[C@@H](CCCCN)C(=O)N[C@@H](CS)C(=O)N[C@H](C(=O)N[C@@H](Cc1ccc(O)cc1)C(=O)N1CCC[C@H]1C(=O)N[C@@H](CC(=O)O)C(=O)N1CCC[C@H]1C(=O)N[C@@H](CCC(=O)O)C(=O)NCC(=O)NCC(=O)NCC(N)=O)[C@@H](C)O` [NOTA-PEP1] ({NOTA}-GGGGDYSHCSPLRYYPWWKCTYPDPEGGG-NH2), the pIC50 on ACE2 [2] (setting [3]) is 5.62. In turn, `CC(C)C[C@@H]1NC(=O)[C@@H]2CCCN2C(=O)[C@H](CO)NC(=O)[C@@H](NC(=O)[C@H](Cc2c[nH]cn2)NC(=O)[C@H](CO)NC(=O)[C@H](Cc2ccc(O)cc2)NC(=O)[C@H](CC(=O)O)NC(=O)CNC(=O)CNC(=O)CNC(=O)CNC(=O)CN2CCN(CC(=O)O)CCN(CC(=O)O)CC2)CSSC[C@@H](C(=O)N[C@H](C(=O)N[C@@H](Cc2ccc(O)cc2)C(=O)N2CCC[C@H]2C(=O)N[C@@H](CC(=O)O)C(=O)N2CCC[C@H]2C(=O)N[C@@H](CCC(=O)O)C(=O)NCC(=O)NCC(=O)NCC(N)=O)[C@@H](C)O)NC(=O)[C@H](CCCCN)NC(=O)[C@H](Cc2c[nH]c3ccccc23)NC(=O)[C@H](Cc2c[nH]c3ccccc23)NC(=O)[C@@H]2CCCN2C(=O)[C@H](Cc2ccc(O)cc2)NC(=O)[C@H](Cc2ccc(O)cc2)NC(=O)[C@H](CCCNC(=N)N)NC1=O` [NOTA-PEP2] ({NOTA}-GGGGDYSHCSPLRYYPWWKCTYPDPEGGG-NH2; disulfide 9-20) showed a pIC50 on ACE2 [2] (setting [3]) of 7.00. Consider `CC(C)C[C@@H]1NC(=O)[C@@H]2CCCN2C(=O)[C@H](CO)NC(=O)[C@@H](NC(=O)[C@H](Cc2c[nH]cn2)NC(=O)[C@H](CO)NC(=O)[C@H](Cc2ccc(O)cc2)NC(=O)[C@H](CC(=O)O)NC(=O)CNC(=O)CCCCCNC(=O)CN2CCN(CC(=O)O)CCN(CC(=O)O)CC2)CSSC[C@@H](C(=O)N[C@H](C(=O)N[C@@H](Cc2ccc(O)cc2)C(=O)N2CCC[C@H]2C(=O)N[C@@H](CC(=O)O)C(=O)N2CCC[C@H]2C(=O)N[C@@H](CCC(=O)O)C(=O)NCC(=O)NCC(=O)NCC(N)=O)[C@@H](C)O)NC(=O)[C@H](CCCCN)NC(=O)[C@H](Cc2c[nH]c3ccccc23)NC(=O)[C@H](Cc2c[nH]c3ccccc23)NC(=O)[C@@H]2CCCN2C(=O)[C@H](Cc2ccc(O)cc2)NC(=O)[C@H](Cc2ccc(O)cc2)NC(=O)[C@H](CCCNC(=N)N)NC1=O` [NOTA-PEP4], for which, on ACE2 [2] (setting [3]), the pIC50 is 7.17. Turning to `CC(C)C[C@@H]1NC(=O)[C@@H]2CCCN2C(=O)[C@H](CO)NC(=O)[C@@H](NC(=O)[C@H](Cc2c[nH]cn2)NC(=O)[C@H](CO)NC(=O)[C@H](Cc2ccc(O)cc2)NC(=O)[C@H](CC(=O)O)NC(=O)CNC(=O)CCOCCOCCNC(=O)CN2CCN(CC(=O)O)CCN(CC(=O)O)CC2)CSSC[C@@H](C(=O)N[C@H](C(=O)N[C@@H](Cc2ccc(O)cc2)C(=O)N2CCC[C@H]2C(=O)N[C@@H](CC(=O)O)C(=O)N2CCC[C@H]2C(=O)N[C@@H](CCC(=O)O)C(=O)NCC(=O)NCC(=O)NCC(N)=O)[C@@H](C)O)NC(=O)[C@H](CCCCN)NC(=O)[C@H](Cc2c[nH]c3ccccc23)NC(=O)[C@H](Cc2c[nH]c3ccccc23)NC(=O)[C@@H]2CCCN2C(=O)[C@H](Cc2ccc(O)cc2)NC(=O)[C@H](Cc2ccc(O)cc2)NC(=O)[C@H](CCCNC(=N)N)NC1=O` [NOTA-PEP6], the “Change of observed ACE2 IC50 on addition of tris(2-carboxyethyl)phosphine (TCEP)” value at ACE2 [2] (TCEP reduces the disulfide bridge (producing linear NOTA-PEP5), Fig. 2E) is “markedly increased”. The “ACE2 inhibition compared with parent DX600 peptide” value at ACE2 [2] (fluorometric ACE2 inhibition assay (AnaSpec), Figs. 2C and 2D) is reported as “nearly identical to DX600”.
